# In PubChem BioAssay (NCI):
# “And” between values parts separate entries of the source, which are not always exact repeats. Equal entries are not always repeated.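 1) Cells in 96-well plates. 2) Compound, 48 h, 5 concentrations. 3) Linear interpolation between surrounding doses. 4) Unreached endpoint = highest concentration. Abbreviation: GI50, concentration required for 50% inhibition of growth. The concentration for full growth arrest is given as TGI.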
# What was measured:
# Experiment in all cases: inhibition of tumour cell growth, NCI panel, 48 h
# [1] = system: 786-0 renal
# [2] = system: A549 NSCLC
# [3] = system: CAKI-1 renal
# [4] = system: CCRF-CEM leukemia
# [5] = system: HCT-15 colon
# [6] = system: MDA-MB-435
# [7] = system: NCI-H460 lung
# [8] = system: SF-295 CNS
# [9] = system: SF-539 CNS
# [10] = system: UO-31 renal
Compound,GI50 [1],TGI [1] [µM],GI50 [2],TGI [2] [µM],GI50 [3],TGI [3] [µM],GI50 [4],TGI [4] [µM],GI50 [5],TGI [5] [µM],GI50 [6] [µM],TGI [6] [µM],GI50 [7],TGI [7],GI50 [8],TGI [8] [µM],GI50 [9],TGI [9] [µM],GI50 [10],TGI [10] [µM]
COC(=O)[C@]12CC[C@@H](C)[C@H](C)[C@@H]1C1=CC[C@@H]3[C@@]4(C)C(C=O)=C[C@@](C)(COC(=O)c5ccco5)C4=CC[C@@]3(C)[C@]1(C)CC2,2.97 µM,9.17,3.28 µM,14,3.32 µM,25.2,2.87 µM,8.73,1.91 µM,4.09,0.0663,2.96,2.66 µM,7.61 µM,2.39 µM,8.83,2.57 µM,6.94,1.92 µM,5.03
O=C(Cc1ccc(-c2ccc(OCCN3CCOCC3)cc2)cn1)NCc1ccccc1,0.0675 µM and 0.0857 µM,> 100,0.0405 µM and 0.0537 µM,> 100,0.0703 µM and 0.0506 µM,> 100,0.0397 µM and 0.0433 µM,> 100,0.0294 µM and 0.0387 µM,> 100,0.0162,0.0392,0.0355 µM and 0.0371 µM,16.2 µM and > 10 µM,0.0296 µM and 0.0347 µM,> 100,0.0283 µM and 0.0301 µM,,0.0821 µM and 0.2 µM,> 100
COc1ccc(-c2cncn2-c2ccc(-c3nc4cc(OC)c(OC)c(OC)c4s3)cc2)cc1N,5.73 µM,> 100,5.77 µM,> 100,4.82 µM,> 100,3.41 µM,> 100,4.02 µM,> 100,3.13,> 100,4.69 µM,> 100 µM,4.44 µM,> 100,> 100 µM,> 100,1.99 µM,7.57
COC(=O)C[C@@H]1CC=CC(=O)/C1=C(O)/C=C/c1ccccc1,0.519 µM,1.56,4.23 µM,22,0.408 µM,1.41,0.264 µM,1.19,0.294 µM,1.15,0.357,1.41,2.08 µM,8.2 µM,2.05 µM,4.42,0.433 µM,7.15,0.303 µM,0.826
Fc1cccc(-c2nc(-c3c[nH]c4ncccc34)cs2)c1,> 100 µM,> 100,17.7 µM,> 100,> 100 µM,> 100,> 100 µM,> 100,> 100 µM,> 100,> 100,> 100,6.59 µM,> 100 µM,36.8 µM,> 100,70 µM,> 100,33.4 µM,> 100
N#Cc1cc2c(=S)[nH]c(=S)[nH]c2nc1SCc1ccccc1,28.1 µM,> 100,32.3 µM,> 100,10.1 µM,76.8,33.1 µM,> 100,33.4 µM,> 100,34.8,> 100,38.8 µM,> 100 µM,46.8 µM,> 100,57.1 µM,> 100,44.8 µM,> 100
NC(=O)/C=C/c1c[nH]c2nccnc12,,> 100,,> 100,,> 100,,7.4,,55.7,,13.2,,> 54 µM,,28.9,,6.15,,0.609
NCCNc1nc2ccc(F)cc2c2c(=O)c3cc(F)ccc3sc12,1.59 µM,2.96,1.73 µM,3.38,1.08 µM,2.78,2.11 µM,4.54,1.78 µM,3.37,1.77,3.29,1.85 µM,3.47 µM,1.88 µM,3.59,1.76 µM,3.25,1.34 µM,11.3
COc1cc(-c2cn(-c3ccc(F)cc3)c(=O)[nH]2)cc(OC)c1OC,> 100 µM,> 100,> 100 µM,> 100,> 100 µM,> 100,> 100 µM,> 100,> 100 µM,> 100,> 100,> 100,> 100 µM,> 100 µM,> 100 µM,> 100,> 100 µM,> 100,> 100 µM,> 100
COc1ccc(C#CC2=C(Br)C(=O)OC2)cc1,21.5 µM,> 50,9.43 µM,28.6,1.76 µM,6.61,3.98 µM,> 50,2.63 µM,11.3,9.94,27.3,10 µM,> 50 µM,10.5 µM,29.1,5.15 µM,16.8,16.9 µM,> 50
CN1CCN(c2ccc(NC(=O)c3cncnc3Nc3ccc4c(ccn4Cc4cccc(F)c4)c3)cc2)CC1,0.66 µM,1.37,2.15 µM,6.59,3.6 µM,7.75,0.901 µM,2.66,0.943 µM,4,0.625,1.2,1.35 µM,4.99 µM,5.41 µM,10.5,1.35 µM,5.54,3.8 µM,7.83
N#CC1=C(N)Oc2c(ccc3cccnc23)C1c1ccccc1 (stereo not given),,> 100,,> 100,,> 100,,13.4,,> 100,0.193,0.661,,> 46.3 µM,,> 21.9,,4.87,,> 100
CCN(CC)CCC(CNc1c(C)cnc2cc(Cl)ccc12)c1ccc(Cl)c(Cl)c1 (stereo not given),2.37 µM,5.74,8.21 µM,22,2.59 µM,11.5,2.81 µM,9.31,2.23 µM,10.8,1.77,3.4,2.63 µM,10.7 µM,1.67 µM,3.75,1.77 µM,3.52,2.59 µM,13.9
